ChEMBL document CHEMBL5465560, “Selectivity Literature for EUbOPEN Chemogenomic Library” (2024)

What was measured:
[1] = biological target: BDNF/NT-3 growth factors receptor (Homo sapiens) (UniProt Q16620); assay: Selectivity interaction (Millipore kinase profiler) EUB0000124b NTRK2; conditions: at 10 µM
[2] = biological target: T1, Muscarinic acetylcholine receptor M2 (Homo sapiens) (UniProt P08172); assay: Selectivity interaction (Safety Panel 44tm (Eurofins)) EUB0000162b CHRM2; conditions: at 10 µM
T1 sequence (whole entry): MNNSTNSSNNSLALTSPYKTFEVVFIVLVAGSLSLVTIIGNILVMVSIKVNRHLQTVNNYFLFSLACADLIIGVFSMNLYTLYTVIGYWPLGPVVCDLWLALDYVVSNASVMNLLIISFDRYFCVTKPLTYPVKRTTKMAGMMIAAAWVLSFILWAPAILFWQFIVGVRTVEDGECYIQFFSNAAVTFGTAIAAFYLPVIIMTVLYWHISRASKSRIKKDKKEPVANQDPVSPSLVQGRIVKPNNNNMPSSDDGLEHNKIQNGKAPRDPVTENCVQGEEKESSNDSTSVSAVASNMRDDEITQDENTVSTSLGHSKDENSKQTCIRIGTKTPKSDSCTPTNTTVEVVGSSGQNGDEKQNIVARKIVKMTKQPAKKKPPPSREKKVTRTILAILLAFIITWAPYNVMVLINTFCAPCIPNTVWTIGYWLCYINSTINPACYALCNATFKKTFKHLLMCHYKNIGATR

[3] = biological target: T2, Phosphatidylinositol 5-phosphate 4-kinase type-2 gamma (Homo sapiens) (UniProt Q8TBX8); assay: Selectivity interaction (KinomeScan (DiscoverX)) EUB0000666a PIP4K2C; conditions: at 10 µM
T2 sequence (whole entry): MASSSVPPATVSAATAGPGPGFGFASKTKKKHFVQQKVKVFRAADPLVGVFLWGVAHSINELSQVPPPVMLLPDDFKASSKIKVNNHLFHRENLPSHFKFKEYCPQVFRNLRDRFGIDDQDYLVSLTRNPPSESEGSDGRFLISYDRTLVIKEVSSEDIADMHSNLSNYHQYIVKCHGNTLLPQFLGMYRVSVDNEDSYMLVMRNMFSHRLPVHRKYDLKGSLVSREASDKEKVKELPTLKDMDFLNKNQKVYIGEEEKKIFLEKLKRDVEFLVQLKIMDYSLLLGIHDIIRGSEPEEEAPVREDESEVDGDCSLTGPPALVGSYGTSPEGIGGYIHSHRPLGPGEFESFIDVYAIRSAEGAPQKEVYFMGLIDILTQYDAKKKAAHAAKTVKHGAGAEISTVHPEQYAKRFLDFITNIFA

[4] = biological target: Protein-tyrosine kinase 2-beta (Homo sapiens) (UniProt Q14289); assay: Selectivity interaction (KinomeScan (DiscoverX)) EUB0000666a PTK2B; conditions: at 10 µM
Protein-tyrosine kinase 2-beta (Homo sapiens), sequence (Q14289 whole entry, looked up): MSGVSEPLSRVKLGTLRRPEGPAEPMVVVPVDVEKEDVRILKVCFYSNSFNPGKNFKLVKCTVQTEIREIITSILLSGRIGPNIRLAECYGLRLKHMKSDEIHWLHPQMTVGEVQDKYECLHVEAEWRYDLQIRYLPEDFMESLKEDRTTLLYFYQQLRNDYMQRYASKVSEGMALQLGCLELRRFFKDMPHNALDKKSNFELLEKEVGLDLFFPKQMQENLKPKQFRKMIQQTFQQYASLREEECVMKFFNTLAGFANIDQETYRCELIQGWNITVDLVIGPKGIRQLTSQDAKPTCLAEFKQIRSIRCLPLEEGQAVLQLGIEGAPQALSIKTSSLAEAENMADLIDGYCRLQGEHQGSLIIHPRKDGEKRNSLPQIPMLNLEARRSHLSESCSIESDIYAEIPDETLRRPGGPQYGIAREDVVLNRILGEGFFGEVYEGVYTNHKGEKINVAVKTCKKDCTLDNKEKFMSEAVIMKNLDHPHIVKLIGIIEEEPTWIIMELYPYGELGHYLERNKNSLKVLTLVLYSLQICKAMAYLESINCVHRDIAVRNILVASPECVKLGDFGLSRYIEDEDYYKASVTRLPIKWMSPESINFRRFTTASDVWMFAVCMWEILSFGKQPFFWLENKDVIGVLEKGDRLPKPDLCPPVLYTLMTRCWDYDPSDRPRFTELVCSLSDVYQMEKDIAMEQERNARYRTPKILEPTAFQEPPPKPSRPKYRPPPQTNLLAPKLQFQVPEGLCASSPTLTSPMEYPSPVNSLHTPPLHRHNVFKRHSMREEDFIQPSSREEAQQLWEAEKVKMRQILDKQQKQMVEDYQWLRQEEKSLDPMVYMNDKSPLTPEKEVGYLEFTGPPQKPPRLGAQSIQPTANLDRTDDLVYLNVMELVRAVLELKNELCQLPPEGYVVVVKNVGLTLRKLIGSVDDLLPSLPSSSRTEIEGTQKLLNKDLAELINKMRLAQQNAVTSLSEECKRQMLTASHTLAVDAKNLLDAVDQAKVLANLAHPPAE

[5] = biological target: Mitogen-activated protein kinase kinase kinase 4 (Homo sapiens) (UniProt Q9Y6R4); assay: Selectivity interaction (KinomeScan (DiscoverX)) EUB0000666a MAP3K4; conditions: at 10 µM
Mitogen-activated protein kinase kinase kinase 4 (Homo sapiens), sequence (Q9Y6R4 whole entry): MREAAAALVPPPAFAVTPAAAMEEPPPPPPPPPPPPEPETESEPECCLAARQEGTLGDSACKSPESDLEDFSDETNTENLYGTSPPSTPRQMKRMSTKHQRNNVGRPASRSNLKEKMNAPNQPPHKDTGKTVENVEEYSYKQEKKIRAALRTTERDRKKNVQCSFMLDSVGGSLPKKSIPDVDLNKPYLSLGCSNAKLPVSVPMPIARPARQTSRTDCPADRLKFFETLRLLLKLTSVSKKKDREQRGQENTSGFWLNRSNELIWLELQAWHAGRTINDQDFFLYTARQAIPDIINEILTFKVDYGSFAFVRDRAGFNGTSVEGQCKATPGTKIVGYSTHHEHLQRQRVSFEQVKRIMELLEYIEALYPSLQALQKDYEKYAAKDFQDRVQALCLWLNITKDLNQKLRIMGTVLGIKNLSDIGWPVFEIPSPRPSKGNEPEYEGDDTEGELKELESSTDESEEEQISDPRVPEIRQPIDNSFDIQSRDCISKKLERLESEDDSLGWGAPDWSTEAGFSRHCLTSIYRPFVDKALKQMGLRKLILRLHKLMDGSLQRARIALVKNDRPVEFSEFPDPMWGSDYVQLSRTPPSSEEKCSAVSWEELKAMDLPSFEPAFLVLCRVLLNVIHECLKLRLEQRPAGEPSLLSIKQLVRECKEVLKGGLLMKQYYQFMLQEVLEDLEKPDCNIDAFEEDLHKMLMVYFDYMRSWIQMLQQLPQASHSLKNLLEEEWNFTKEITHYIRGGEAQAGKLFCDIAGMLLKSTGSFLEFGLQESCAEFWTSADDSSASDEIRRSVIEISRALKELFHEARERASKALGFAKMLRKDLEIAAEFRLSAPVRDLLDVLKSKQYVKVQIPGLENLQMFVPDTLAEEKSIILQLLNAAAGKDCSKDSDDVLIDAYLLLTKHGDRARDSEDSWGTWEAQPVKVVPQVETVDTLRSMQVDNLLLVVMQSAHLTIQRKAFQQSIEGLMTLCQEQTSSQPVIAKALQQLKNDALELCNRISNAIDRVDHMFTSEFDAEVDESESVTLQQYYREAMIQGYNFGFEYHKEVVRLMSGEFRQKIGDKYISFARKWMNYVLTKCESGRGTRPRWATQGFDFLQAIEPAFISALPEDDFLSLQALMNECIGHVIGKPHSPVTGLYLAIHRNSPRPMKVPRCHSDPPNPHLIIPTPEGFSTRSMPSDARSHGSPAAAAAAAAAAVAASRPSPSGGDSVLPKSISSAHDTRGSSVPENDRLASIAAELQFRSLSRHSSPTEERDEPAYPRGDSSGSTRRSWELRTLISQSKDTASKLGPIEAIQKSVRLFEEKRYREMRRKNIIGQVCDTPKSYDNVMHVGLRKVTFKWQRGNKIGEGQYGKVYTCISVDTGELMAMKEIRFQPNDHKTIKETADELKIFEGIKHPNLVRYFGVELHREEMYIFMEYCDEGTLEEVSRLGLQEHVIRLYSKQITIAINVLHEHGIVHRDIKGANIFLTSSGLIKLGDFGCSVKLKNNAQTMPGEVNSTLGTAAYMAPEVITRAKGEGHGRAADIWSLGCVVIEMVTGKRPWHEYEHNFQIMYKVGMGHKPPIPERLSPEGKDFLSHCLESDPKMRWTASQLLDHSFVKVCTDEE

[6] = biological target: Ribosomal protein S6 kinase alpha-5 (Homo sapiens) (UniProt O75582); assay: Selectivity interaction (Kinase panel (DSF assay)) EUB0001559a RPS6KA5
Ribosomal protein S6 kinase alpha-5 (Homo sapiens), sequence (O75582 whole entry, looked up): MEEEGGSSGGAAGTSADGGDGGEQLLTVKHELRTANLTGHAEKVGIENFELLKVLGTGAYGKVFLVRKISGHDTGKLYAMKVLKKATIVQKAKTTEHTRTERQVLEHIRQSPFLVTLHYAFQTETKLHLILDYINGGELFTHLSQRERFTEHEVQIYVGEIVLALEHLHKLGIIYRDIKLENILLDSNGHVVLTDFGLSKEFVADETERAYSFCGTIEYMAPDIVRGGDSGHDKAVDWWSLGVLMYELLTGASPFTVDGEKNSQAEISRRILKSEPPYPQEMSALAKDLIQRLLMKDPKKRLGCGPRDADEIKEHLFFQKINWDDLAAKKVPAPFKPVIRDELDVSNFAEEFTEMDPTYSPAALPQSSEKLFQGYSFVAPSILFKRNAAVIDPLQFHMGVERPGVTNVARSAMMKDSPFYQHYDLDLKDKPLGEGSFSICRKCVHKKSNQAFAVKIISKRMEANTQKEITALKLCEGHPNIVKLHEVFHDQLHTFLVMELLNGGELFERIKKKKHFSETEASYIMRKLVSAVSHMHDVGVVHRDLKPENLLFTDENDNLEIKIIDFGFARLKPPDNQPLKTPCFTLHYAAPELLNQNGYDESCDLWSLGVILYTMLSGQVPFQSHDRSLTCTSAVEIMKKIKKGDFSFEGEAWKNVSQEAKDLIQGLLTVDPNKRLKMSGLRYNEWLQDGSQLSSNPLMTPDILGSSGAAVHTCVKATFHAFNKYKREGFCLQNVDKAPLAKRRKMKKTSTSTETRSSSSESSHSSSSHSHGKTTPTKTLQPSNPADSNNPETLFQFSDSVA

[7] = biological target: T3, Serine/threonine-protein kinase ULK3 (Homo sapiens) (UniProt Q6PHR2); assay: Selectivity interaction (ActivX KiNativ screen (ex vivo kinase selectivity in human PBMCs)) EUB0001619a ULK3; format: cell-based; conditions: PBMC, at 1 µM
T3 sequence (whole entry): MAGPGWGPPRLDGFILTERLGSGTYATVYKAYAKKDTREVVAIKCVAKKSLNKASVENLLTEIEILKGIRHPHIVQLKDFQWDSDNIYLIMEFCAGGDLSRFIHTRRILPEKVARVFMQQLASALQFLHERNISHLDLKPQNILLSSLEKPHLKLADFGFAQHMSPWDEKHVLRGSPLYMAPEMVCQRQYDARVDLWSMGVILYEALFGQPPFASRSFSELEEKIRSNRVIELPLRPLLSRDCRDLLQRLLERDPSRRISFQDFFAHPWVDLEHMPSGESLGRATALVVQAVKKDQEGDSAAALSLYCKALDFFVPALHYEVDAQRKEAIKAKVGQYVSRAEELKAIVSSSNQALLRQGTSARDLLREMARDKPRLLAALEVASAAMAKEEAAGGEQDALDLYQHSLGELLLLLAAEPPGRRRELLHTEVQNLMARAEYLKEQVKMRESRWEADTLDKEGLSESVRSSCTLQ

BDNF/NT-3 growth factors receptor (Homo sapiens), sequence (Q16620 32-822 limits assumed): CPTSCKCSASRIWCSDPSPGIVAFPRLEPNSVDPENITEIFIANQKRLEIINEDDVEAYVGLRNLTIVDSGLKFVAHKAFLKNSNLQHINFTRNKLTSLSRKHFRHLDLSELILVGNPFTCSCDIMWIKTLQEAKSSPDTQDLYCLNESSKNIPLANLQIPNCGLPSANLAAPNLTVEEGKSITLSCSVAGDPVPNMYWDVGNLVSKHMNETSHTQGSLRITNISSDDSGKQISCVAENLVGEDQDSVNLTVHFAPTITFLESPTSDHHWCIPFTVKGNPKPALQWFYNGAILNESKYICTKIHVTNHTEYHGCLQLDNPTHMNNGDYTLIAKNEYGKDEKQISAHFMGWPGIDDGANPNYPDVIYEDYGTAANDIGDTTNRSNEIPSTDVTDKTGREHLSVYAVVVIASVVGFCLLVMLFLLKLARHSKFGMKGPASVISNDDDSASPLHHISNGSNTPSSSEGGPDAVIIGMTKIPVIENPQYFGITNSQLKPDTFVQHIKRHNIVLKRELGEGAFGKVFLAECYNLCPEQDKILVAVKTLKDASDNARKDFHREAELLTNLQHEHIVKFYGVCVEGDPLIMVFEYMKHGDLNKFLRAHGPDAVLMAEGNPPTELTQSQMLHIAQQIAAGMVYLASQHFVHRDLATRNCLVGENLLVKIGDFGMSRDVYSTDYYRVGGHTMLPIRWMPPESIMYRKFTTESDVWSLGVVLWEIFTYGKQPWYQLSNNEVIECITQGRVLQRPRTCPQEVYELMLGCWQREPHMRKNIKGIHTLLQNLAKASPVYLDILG

CC(=O)Nc1cccc(-n2c(=O)n(C3CC3)c(=O)c3c(Nc4ccc(I)cc4F)n(C)c(=O)c(C)c32)c1
% of control [1]: 120%

CN(C)C(=O)Cn1cc(-c2ccc(-c3cncc4ccccc34)cc2)cn1
% of control [2]: 84%

O=C(NOC[C@H](O)CO)c1ccc(F)c(F)c1Nc1ccc(I)cc1F
% of control [3]: 100% | % of control [4]: 98% | % of control [5]: 100%

CN(C(=O)c1cnn2cccnc12)c1cc2c(cc1N1CCOCC1)C(=O)N(C[C@@H](F)C(C)(C)O)C2
dTM [6]: 0.3 K

N#Cc1cccc(-c2c[nH]c3ncnc(N4CCOCC4)c23)c1
% of inhibition [7]: 5%
